From patent publication US8209131B2, “Therapeutic heparins and their binding to interleukins 4 and 5 and PECAM-1” (Curtin University of Technology, priority 2004, dated 2012)
Where two headings read alike, the source gives them in different places.

Assays:
[1] = BIAcore binding of proteins to heparin immobilised on a biosensor chip; conditions: for binding to immobilized heparin: recombinant proteins, FIG. 2
Text: This technology uses the optical phenomenon of surface plasmon resonance to monitor physical interactions between molecules. Passing the protein solution over a sensor surface to which the ligand is coupled monitors the real-time binding of proteins to an immobilized ligand. Detection is achieved by measuring refractive index changes very close to the sensor surface. When the refractive index is altered, the angle at which plasmon resonance occurs changes and this change directly correlates with the amount of protein interacting with the surface. A BIAcore 2000 is conveniently used. It is very sensitive and its microfluidics ensures that only small amounts of material are required.
The HLGAGs are immobilized on the biosensor chip. Intact HLGAGs are biotinylated via amino groups, or reducing termini modified with ammonia by reductive amination, using sulfo-NHS-biotin. Biotinylated HLGAGs are immobilized on streptavidin-coupled sensor chips. Solutions containing proteins of interest are injected over the sensor chip surface, and the binding is measured in real time (Fernig, In: Proteoglycan protocols, Ed. R.V. Iozzo, Humana Press, Totowa, N.J., USA, 2001). […] In all cases binding is specific, as there is little or no interaction with sensor chips lacking heparin with any of the targeted proteins, and binding is inhibited by exogenous heparin. Initial analyzes indicate that the binding of rhIL-5 to heparin has affinity constants of the order from 50-5×10^−9. Because unsubstituted amines are variably present in heparan sulfates from different tissues, an alternative method of biotin labeling is recommended for the heparan sulfate chip. In this case, heparan sulfate is labeled via oxidized cis-diol residues using biotinyl-LC-hydrazine. […]
Binding experiments with these proteins has indicated to which PECAM-1 domains heparin binds. Two binding assays were used: the assay where PECAM-1 is reacted with a BIAcore biosensor chip to which heparin has been immobilised and the second assay is the binding of PECAM-1 to heparan sulfate on the cell surface.
Site directed mutagenesis was performed on IL-4. Basic residues within the proposed heparin binding site were changed to alanine and the proteins expressed using the baculovirus expression system. The one exception was R88 which was changed to valine. Insect cell expressed proteins were purified on an anti-IL-4 affinity column and checked for purity by SDS-PAGE and silver staining. Mutant IL-4 proteins were examined for their ability to bind heparin immobilised on a biosensor chip and binding assessed using a BIAcore 2000.

TF1.8 cells = test: TF1.8 bioassay of IL-4 mutants (support of proliferation); assay type: cell-based, human; conditions: IL-4 wt and mutants, TF1.8 cells
Description: TF-1.8 cells have been transfected with the firefly luciferase gene contained in the expression vector, pPGK-puromycin-luciferase (Coombe et al., 1998, Supra). The positive transfectants are cloned to produce a line with good luciferase expression. The proliferation assays are carried out in 96-well microplates suitable for such assays Falcon). The wells are flat bottomed, with white sides and a clear bottom. Cells are washed to remove any cytokine in the growth medium and then resuspended in RPMI/5% w/v FCS. The cells are counted with a Coulter Multisizer (Coulter Electronics, England) and routinely 2.5×10^4 cells are added to microplate wells that contain either no IL-4 (negative control) or various dilutions of IL-4. When the effect of HLGAGs, chondroitin sulfate C, or the heparin fractions of a particular length, or heparin fragments of a particular length and structure is to be measured, the wells also contain various concentrations of these molecules.
The cells proliferate for 48 hours at 37° C. in a humidified atmosphere, after which the luciferase activity is measured by the addition of 50 μl of luciferase substrate buffer (50 mm Tris-HCl, pH 7.8, 15 mM MgSO4, 33.3 mM DTT, 0.1 mM EDTA, 0.5 mM Na-luciferin, 0.5 mM ATP, 0.25 mM lithium Co A and 0.5% v/v Triton X-100). […] Light emissions are detected on a Victor 1420 Multilabel counter (Wallac, Turku, Finland). […]

Row | Substance | binding to immobilized heparin [1] | Conc needed for 50% growth, average (TF1.8 cells) | Kd ([1]; FIG. 24, several IL-4 concentrations, read-out: estimated KD of wild-type IL-4 binding to heparin) | ka ([1]; IL-4 WT and mutants binding to heparin, in M-1s-1 (unit assumed)) | kd ([1]; IL-4 WT and mutants binding to heparin, in s-1 (unit assumed)) | Kd ([1]; IL-4 WT and mutants binding to heparin, read-out: KD) | binding of PECAM-1 constructs to immobilised heparin [1]
1 | rhIL-5: baculovirus expressed human IL-5 | readily bind to heparin | – | – | – | – | – | –
2 | WT: recombinant human wild-type IL-4 | readily bind to heparin | 0.99 ng/mL | 5 to 10 nM | 5.68E+04 | 2.88E−03 | 52.7 nM | –
3 | flag-PECAM-1: extracellular domain of PECAM-1 fused to the flag affinity tag, Cos-7 expressed | readily bind to heparin | – | – | – | – | – | can bind to the heparin chip
4 | CypA: E. coli expressed Cyclophilin A | readily bind to heparin | – | – | – | – | – | –
